Data reported in ChEMBL document CHEMBL1141545, “Synthesis and biological evaluation of 3,5-diaminoindazoles as cyclin-dependent kinase inhibitors” (Bioorg Med Chem Lett, 2008).

How the values were obtained:
[1] = biological target: Cyclin-dependent kinase 2 (Homo sapiens, UniProt P24941); assay: Inhibition of CDK2
[2] = biological target: Cyclin-dependent kinase 4 (Homo sapiens, UniProt P11802); assay: Inhibition of CDK4
[3] = biological target: Cyclin-dependent kinase 1 (Homo sapiens, UniProt P06493); assay: Inhibition of CDK1
Sequence of Cyclin-dependent kinase 1 (P06493 whole entry): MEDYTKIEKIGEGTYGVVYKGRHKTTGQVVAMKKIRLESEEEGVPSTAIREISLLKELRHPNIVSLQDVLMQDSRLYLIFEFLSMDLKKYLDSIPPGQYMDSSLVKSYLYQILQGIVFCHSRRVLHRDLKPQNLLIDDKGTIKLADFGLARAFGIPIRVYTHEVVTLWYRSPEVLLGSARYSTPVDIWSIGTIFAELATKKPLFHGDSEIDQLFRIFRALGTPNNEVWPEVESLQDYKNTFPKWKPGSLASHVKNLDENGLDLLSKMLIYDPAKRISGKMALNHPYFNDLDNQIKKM

EJ = assay: Antiproliferative activity against human EJ cells after 48 hrs; format: functional, cell-based
A549 = assay: Antiproliferative activity against human A549 cells after 48 hrs; format: functional, cell-based; conditions: A549, 48 h
SW-620 = assay: Antiproliferative activity against human SW620 cells after 48 hrs; format: functional, cell-based; conditions: SW-620, 48 h
HCT-116 = assay: cells; conditions: Homo sapiens, HCT-116, 48 h
Description: Antiproliferative activity against human HCT116 cells after 48 hrs

[4] = Selectivity for CDK2 over CDK1

Sequence of Cyclin-dependent kinase 4 (P11802 whole entry): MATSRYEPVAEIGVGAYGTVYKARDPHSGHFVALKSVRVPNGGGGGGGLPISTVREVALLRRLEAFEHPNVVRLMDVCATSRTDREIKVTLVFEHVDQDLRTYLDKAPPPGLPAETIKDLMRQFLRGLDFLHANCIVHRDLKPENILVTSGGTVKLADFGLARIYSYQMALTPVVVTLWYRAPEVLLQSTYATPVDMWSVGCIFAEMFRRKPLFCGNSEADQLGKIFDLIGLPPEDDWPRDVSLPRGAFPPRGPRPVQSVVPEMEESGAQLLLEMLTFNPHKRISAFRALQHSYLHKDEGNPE

| SMILES | IC50 [1] | IC50 [2] | IC50 [3] | IC50 (A549) | IC50 (SW-620) | IC50 (HCT-116) | Ratio IC50 [4] | IC50 (EJ) |
| --- | --- | --- | --- | --- | --- | --- | --- | --- |
| O=C(Cc1ccc(-c2ccccc2)cc1)Nc1n[nH]c2ccc(N3CCCS3(=O)=O)cc12 | 14 nM | 2200 nM | 42 nM | 55 nM | 40 nM | 180 nM | – | 52 nM |
| O=C(Cc1ccc(-c2ccncc2)cc1)Nc1n[nH]c2ccc(N3CCCS3(=O)=O)cc12 | 30 nM | 1330 nM | 60 nM | 1400 nM | – | 2500 nM | < 10 | 1050 nM |
| CS(=O)(=O)c1ccc(CC(=O)Nc2n[nH]c3ccc(N4CCCS4(=O)=O)cc23)cc1 | 22 nM | 1400 nM | 200 nM | – | – | 48000 nM | – | 35000 nM |
| O=C(Cc1ccc(N2CCCCC2)cc1)Nc1n[nH]c2ccc(N3CCCS3(=O)=O)cc12 | – | 750 nM | 150 nM | 1100 nM | – | 1200 nM | – | 980 nM |
| CCNc1ccc2[nH]nc(NC(=O)Cc3ccccc3)c2c1 | 500 nM | – | – | – | – | – | – | – |
| CCCN(CCC)c1ccc2[nH]nc(NC(=O)Cc3ccccc3)c2c1 | 1800 nM | – | – | – | – | – | – | – |
| CCN(CC)c1ccc2[nH]nc(NC(=O)Cc3ccccc3)c2c1 | 200 nM | – | – | – | – | – | – | – |
| O=C(Cc1ccccc1)Nc1n[nH]c2ccc([N+](=O)[O-])cc12 | 2000 nM | – | – | – | – | – | – | – |
| O=C(Cc1ccccc1)Nc1n[nH]c2ccc(N3C(=O)CNC3=O)cc12 | 2000 nM | – | – | – | – | – | – | – |
| O=C(Cc1ccccc1)Nc1n[nH]c2ccc(N3CCCC3=O)cc12 | 170 nM | – | – | – | – | – | – | – |
| O=C(Cc1cccc2ccccc12)Nc1n[nH]c2ccc(N3CCCS3(=O)=O)cc12 | 20 nM | 3000 nM | 67 nM | 1400 nM | 930 nM | 2300 nM | < 10 | 1300 nM |
| CCN(CC)c1ccc(CC(=O)Nc2n[nH]c3ccc(N4CCCS4(=O)=O)cc23)cc1 | 40 nM | > 1000 nM | 60 nM | 50 nM | – | 220 nM | – | 55 nM |
| O=C(Cc1ccccc1)Nc1n[nH]c2ccc(N3CCCCC3=O)cc12 | 7100 nM | – | – | – | – | – | – | – |
| CCCCN(CCCC)c1ccc2[nH]nc(NC(=O)Cc3ccccc3)c2c1 | > 100000 nM | – | – | – | – | – | – | – |

Further lines, with some results ahead:

| IC50 [1] | IC50 [2] | IC50 [3] | IC50 (A549) | IC50 (SW-620) | IC50 (HCT-116) | Ratio IC50 [4] | SMILES | IC50 (EJ) |
| --- | --- | --- | --- | --- | --- | --- | --- | --- |
| 36 nM | 3700 nM | – | – | 2200 nM | 4600 nM | – | O=C(Cc1ccccc1)Nc1n[nH]c2ccc(N3CCCS3(=O)=O)cc12 | 3600 nM |
| 9 nM | 1600 nM | 40 nM | 90 nM | 80 nM | 310 nM | < 10 | O=C(Cc1ccc2ccccc2c1)Nc1n[nH]c2ccc(N3CCCS3(=O)=O)cc12 | 120 nM |
| 10 nM | 710 nM | 30 nM | – | – | – | < 10 | O=C(Cc1cccc(F)c1)Nc1n[nH]c2ccc(N3CCCS3(=O)=O)cc12 | – |
| 16 nM | 2200 nM | 60 nM | – | – | – | < 10 | Nc1ccc(CC(=O)Nc2n[nH]c3ccc(N4CCCS4(=O)=O)cc23)cc1 | – |
| 7 nM | 1800 nM | 40 nM | 2570 nM | 1560 nM | 1770 nM | < 10 | Cc1ccc(CC(=O)Nc2n[nH]c3ccc(N4CCCS4(=O)=O)cc23)cc1 | 1670 nM |
| 9 nM | 1750 nM | 28 nM | – | 3830 nM | 6530 nM | – | O=C(Cc1ccc(O)cc1)Nc1n[nH]c2ccc(N3CCCS3(=O)=O)cc12 | 5200 nM |
| 10 nM | 1300 nM | 40 nM | 2470 nM | 150 nM | 820 nM | – | CSc1ccc(CC(=O)Nc2n[nH]c3ccc(N4CCCS4(=O)=O)cc23)cc1 | 280 nM |
| 7 nM | 1800 nM | 47 nM | – | – | – | < 10 | O=C(Cc1cccc(Br)c1)Nc1n[nH]c2ccc(N3CCCS3(=O)=O)cc12 | – |
| 10 nM | 4000 nM | 50 nM | – | – | – | < 10 | Cc1cccc(CC(=O)Nc2n[nH]c3ccc(N4CCCS4(=O)=O)cc23)c1 | – |
| 20 nM | 3000 nM | 50 nM | – | – | – | < 10 | O=C(Cc1ccc(F)cc1)Nc1n[nH]c2ccc(N3CCCS3(=O)=O)cc12 | – |
| 10 nM | 2000 nM | 12 nM | 1500 nM | 930 nM | 1230 nM | – | O=C(Cc1ccc(Cl)cc1)Nc1n[nH]c2ccc(N3CCCS3(=O)=O)cc12 | 930 nM |
| 10 nM | 1050 nM | 34 nM | – | – | – | < 10 | O=C(Cc1cccc(Cl)c1)Nc1n[nH]c2ccc(N3CCCS3(=O)=O)cc12 | – |
| 7 nM | 2000 nM | 22 nM | 3870 nM | 2000 nM | 1400 nM | < 10 | O=C(Cc1ccc(Br)cc1)Nc1n[nH]c2ccc(N3CCCS3(=O)=O)cc12 | 1570 nM |
| 24 nM | 890 nM | 80 nM | – | – | – | < 10 | O=C(Cc1ccccc1Cl)Nc1n[nH]c2ccc(N3CCCS3(=O)=O)cc12 | – |
| 10 nM | 210 nM | 28 nM | 350 nM | – | 830 nM | < 10 | CN(C)c1ccc(CC(=O)Nc2n[nH]c3ccc(N4CCCS4(=O)=O)cc23)cc1 | – |
